Data taken from patent US12116387B2, “Antimicrobial peptides” (priority 2021, dated 2024).
Where two headings read alike, the source gives them in different places. Ends that are not written are not given here.

What was measured:
P. aeruginosa = assay: Skin scarification (abscess) infection mouse model; type: in vivo; details: single dose 16 μmol L^−1
Source text: Despite these therapeutic properties, mast-MO retained some cytotoxicity towards human cells at concentrations immediately above its antimicrobial and immunomodulatory activities hindering its use as a potential therapy in humans. FIG. 6B pertains to design of mast-MO derivatives through permutation of its FLPII motif. FIG. 6C depicts cytotoxic activity of mast-MO and its permutation variants against human embryonic kidney cells (i.e., HEK293). FIG. 6D provides a schematic of the experimental design. Briefly, the back of mice was shaved, and an abrasion was generated to damage the stratum corneum and the upper layer of the epidermis. Subsequently, an aliquot of […] containing 5×10^7 CFU/20 μL of P. aeruginosa in PBS was inoculated over each defined area. One day post-infection, peptides (16 μmol L^−1) were administered to the infected area. […] Six animals per group were euthanized and the area of scarified skin was excised two days post-infection, homogenized using a bead beater for 20 min (25 Hz), and serially diluted for CFU quantification (statistical significance was determined using two-way ANOVA followed by Dunnett's test, ***p<0.001). […]
Skin abscess infection mouse model. […] Animals were euthanized and the area of scarified skin was excised two- and four-days post-infection, homogenized using a bead beater for 20 minutes (25 Hz), and serially diluted for CFU quantification. […]

mice = test system: mice
Protocol: Therefore, the anti-infective activity of mast-MO was then tested in pre-clinical mouse models. First, the toxicity of a single dose of either mast-L or mast-MO administered peritoneally to mice was assessed in order to determine the range of concentrations to be used in subsequent animal experiments. The hemolytic activity of mast-MO (up to 200 μmoL^−1) against murine red blood cells (Table 6) was also tested prior to conducting animal experiments.
Systemic bacterial infection mouse model. Acute toxicity assay was performed based on the work of Navon-Venezia and co-workers (46). The experiment was performed by intraperitoneal (i.p.) injection of the tested peptides to groups of 10 C57BL/6 mice. Each mouse was injected with a 0.5 mL solution of freshly prepared of peptides in PBS. The doses of peptide administered per mouse were 0, 10, 30, 50, 70 and 90 mg Kg^−1 of body weight. Animals were directly inspected for adverse effects for 6 h, and mortality was monitored for 7 days thereafter. Differences between groups were analysed using the Fisher exact test (differences were considered to be statistically significant when the P value was <0.05). Briefly, E. coli ATCC8739 and E. coli 1812446 or S. aureus ATCC 29213 and S. aureus (MRSA) ATCC33591 were plated on tryptic soy agar plus 5% sheep blood (blood agar, Himedia, India) from a frozen stock. Following 24 h of incubation of the agar plate, three isolated colonies were transferred to 1 mL of BHI. The broth culture was incubated overnight (12-16 h) at 37° C. with shaking. […] Mice were challenged with either strain of E. coli ATCC8739 and E. coli 1812446 or S. aureus ATC29213 and S. aureus (MRSA) ATCC33591 in a final volume of 200 μL of PBS by intraperitoneal injection (i.p.). The day of challenge was designated as day 1 of the experiment. Three hours after bacterial injection, mice (n=5) were treated, intraperitoneally, with different concentrations of peptides (1, 5 or 10 mg Kg^−1), LL-37, gentamicin and 10 mg Kg^−1 of imipenem or PBS for 8 days. For bacterial load evaluation, 5 mice per group were used. Animals were humanely killed 24 h after bacterial administration. To detect bacterial colonization, the peritoneal lavage samples were collected under sterile conditions. The peritoneal lavage was obtained by washing the cavity with 5 mL of sterile PBS. Samples were diluted serially, and 100 μL of each dilution was spread in duplicate on appropriate agar plates for the count of developed colonies. Cytokine levels (i.e., IFN-γ, IL-6, IL−10, IL−12p70 and TNF-α) in the peritoneal lavage of the mice both in the absence and presence of peptide treatment were quantified by ELISA (Peprotech, USA) according to the manufacturer's instructions.

[1] = test system: human red blood cells (hRBCs); assay: Cytotoxicity / hemolysis against human red blood cells; type: cell-based
Protocol: Once the mechanisms by which the peptide targeted bacterial cells was elucidawted, the effect of the pentapeptide motif insertion on cytotoxicity against mammalian cells was evaluated.

[2] = test system: murine fibroblasts (L929); assay: Cytotoxicity against L929 fibroblasts (MTT); type: cell-based
Protocol: Mammalian cells toxicity assays. L929 mice fibroblasts (Rio de Janeiro Cell Bank) and SPCs were seeded in 96-well microtiter plates in a concentration of 1.0×10^5 cells per well, in DMEM medium, supplemented with different concentrations of tested peptides (1-600 μM). After 48 h incubation, a thiazolyl blue tetrazolium bromide (MTT) protocol was performed. Briefly, 60% of the medium was removed, and 10 μL of MTT (5 mg mL^−1) (Sigma, USA) solution was added to each well and the plate was incubated for 4 h, in 5% CO2, at 37° C. The blue formazan product generated was dissolved by the addition of 100 μL of 100% DMSO (Mallinckrodt, Germany) per well. Plates were then gently swirled for 5 min, at room temperature, to dissolve the precipitate. The absorbance was monitored at 575 nm using a microplate spectrophotometer (Bio-Tek, USA). Cytotoxicity was determined as a percentage of the maximum value after subtracting the background. The results were expressed as the percentage of each sample compared to the negative control (PBS buffer, pH 7.4) and cell culture was incubated in a lysis buffer (10 mM Tris, pH 7.4, 1 mM ethylenediamine tetraacetic acid (EDTA), and 0.1% Triton X-100).

[3] = test system: murine macrophages monocytes (RAW 264.7); assay: Cytotoxicity against RAW 264.7 cells (MTT); type: cell-based
[4] = test system: human embryonic kidney (HEK293) cells; assay: Cytotoxicity against HEK293 cells; type: cell-based
Source text: The FLPII motif was chosen for the permutations to preserve the natural antimicrobial activity of mast-L and also conserve the hydrophobic content inserted in the N-terminal extremity for the initial design of mast-MO. Next, we assessed the antimicrobial (FIG. 10) and cytotoxic activities of the mast-MO analog library against HEK293 cells (FIG. 6C). These specific cell line was chosen as it derives from human embryonic kidney cells and potential antimicrobial (i.e., AMPs, antibiotics) toxicity affects the kidneys, which are responsible for clearing such molecules (34). Also measured was whether the peptides aggregated at the highest concentration tested (128 μmoL^−1) (Table 7) since the motif inserted is composed of residues with aliphatic or aromatic side chain groups that may be prone to aggregation when in proximity within the primary peptide sequence, thus altering biological activity. Minor changes to the first five residues inserted in the mast-MO primary sequence led to a pronounced decrease in cytotoxic activity (2.5 to 5-fold) compared to mast-MO (FIG. 6C).

[5] = test system: E. coli and S. aureus strains; assay: Systemic infection experiments, summary over all strains; details: 10 mg Kg^−1
Protocol: To determine the anti-infective activity of mast-MO in a pre-clinical mouse model, the ability of the peptide to kill pathogenic and drug-resistant E. coli and S. aureus strains was tested in a systemic sepsis infection mouse model (FIG. 5). The minimal bacterial load resulting in a lethal dose (LD100) 24 h post-intraperitoneal injection was first determined. […] Mice were infected with the LD100 of bacteria and treated 3 h post-infection with either mast-L (1 and 5 mg Kg^−1) or mast-MO (1, 5 and 10 mg Kg^−1), which were also administered intraperitoneally.
Systemic bacterial infection mouse model. […] The experiment was performed by intraperitoneal (i.p.) injection of the tested peptides to groups of 10 C57BL/6 mice. Each mouse was injected with a 0.5 mL solution of freshly prepared of peptides in PBS. The doses of peptide administered per mouse were 0, 10, 30, 50, 70 and 90 mg Kg^−1 of body weight. Animals were directly inspected for adverse effects for 6 h, and mortality was monitored for 7 days thereafter. Differences between groups were analysed using the Fisher exact test (differences were considered to be statistically significant when the P value was <0.05). Briefly, E. coli ATCC8739 and E. coli 1812446 or S. aureus ATCC 29213 and S. aureus (MRSA) ATCC33591 were plated on tryptic soy agar plus 5% sheep blood (blood agar, Himedia, India) from a frozen stock. Following 24 h of incubation of the agar plate, three isolated colonies were transferred to 1 mL of BHI. The broth culture was incubated overnight (12-16 h) at 37° C. with shaking. […] Mice were challenged with either strain of E. coli ATCC8739 and E. coli 1812446 or S. aureus ATC29213 and S. aureus (MRSA) ATCC33591 in a final volume of 200 μL of PBS by intraperitoneal injection (i.p.). The day of challenge was designated as day 1 of the experiment. Three hours after bacterial injection, mice (n=5) were treated, intraperitoneally, with different concentrations of peptides (1, 5 or 10 mg Kg^−1), LL-37, gentamicin and 10 mg Kg^−1 of imipenem or PBS for 8 days. For bacterial load evaluation, 5 mice per group were used. […]

[6] = test system: mouse red blood cells (mRBCs); assay: Hemolysis of mouse red blood cells; type: cell-based; details: 0.5 to 200 μmol L^−1
Protocol: Hemolysis assays. Hemolytic activity of peptides was determined by using fresh mouse red blood cells (mRBCs), by measuring the peptide-induced changes of the optical density (OD) at 540 nm (Victor X, Perkin-Elmer, Germany), 100% lysis was determined by analysing the supernatant of erythrocytes that had been incubated with Triton X-100 (1%).

[7] = Dose 90 mg Kg^−1, five mice per group

CC[C@H](C)[C@H](N)C(=O)N[C@@H](Cc1ccccc1)C(=O)N[C@@H](CC(C)C)C(=O)N1CCC[C@H]1C(=O)N[C@H](C(=O)N[C@H](C(=O)N[C@@H](CC(N)=O)C(=O)N[C@@H](CC(C)C)C(=O)N[C@@H](CCCCN)C(=O)N[C@@H](C)C(=O)N[C@@H](CC(C)C)C(=O)N[C@@H](C)C(=O)N[C@@H](C)C(=O)N[C@@H](CC(C)C)C(=O)N[C@@H](C)C(=O)N[C@@H](CCCCN)C(=O)N[C@@H](CCCCN)C(=O)N[C@H](C(=O)N[C@@H](CC(C)C)C(N)=O)[C@@H](C)CC)[C@@H](C)CC)[C@@H](C)CC [Analog 15, IFLPIINLKALAALAKKIL]
Side effects or adverse toxicity (P. aeruginosa): did not cause any side effects or adverse toxicity

CC[C@H](C)[C@H](NC(=O)[C@H](CCCCN)NC(=O)[C@H](CCCCN)NC(=O)[C@H](C)NC(=O)[C@H](CC(C)C)NC(=O)[C@H](C)NC(=O)[C@H](C)NC(=O)[C@H](CC(C)C)NC(=O)[C@H](C)NC(=O)[C@H](CCCCN)NC(=O)[C@H](CC(C)C)NC(=O)[C@H](CC(N)=O)NC(=O)[C@@H](NC(=O)[C@H](CC(C)C)NC(=O)[C@@H](NC(=O)[C@@H](NC(=O)[C@@H]1CCCN1C(=O)[C@@H](N)Cc1ccccc1)[C@@H](C)CC)[C@@H](C)CC)[C@@H](C)CC)C(=O)N[C@@H](CC(C)C)C(N)=O [Analog 49, FPIILINLKALAALAKKIL]
Side effects or adverse toxicity (P. aeruginosa): did not cause any side effects or adverse toxicity

C[C@@H](O)[C@H]1C(=O)N2C(C(=O)O)=C(SCCN=CN)C[C@H]12 [Imipenem, imipenem]
Gross toxicity, number of mice (TL) (mice; Dose 50 mg Kg^−1, five mice per group): 2 (TL-1)
Gross toxicity, number of mice (TL) (mice; [7]): 3 (TL-2)
Cytotoxic activity, Peptide Concentration ([1]; human): >400 µmol/L
Cytotoxic activity, Peptide Concentration ([2]; mouse): >400 µmol/L
Cytotoxic activity, Peptide Concentration ([3]; mouse): >400 µmol/L

CC[C@H](C)[C@H](NC(=O)[C@H](CCCCN)NC(=O)[C@H](CCCCN)NC(=O)[C@H](C)NC(=O)[C@H](CC(C)C)NC(=O)[C@H](C)NC(=O)[C@H](C)NC(=O)[C@H](CC(C)C)NC(=O)[C@H](C)NC(=O)[C@H](CCCCN)NC(=O)[C@H](CC(C)C)NC(=O)[C@H](CC(N)=O)NC(=O)[C@@H](NC(=O)[C@@H](NC(=O)[C@@H](NC(=O)[C@@H]1CCCN1C(=O)[C@H](CC(C)C)NC(=O)[C@@H](N)Cc1ccccc1)[C@@H](C)CC)[C@@H](C)CC)[C@@H](C)CC)C(=O)N[C@@H](CC(C)C)C(N)=O [Mast-MO, FLPIIINLKALAALAKKIL]
Concentration toxic against HEK293 [4]: 25 µmol⁻¹
Cytotoxic activity, Peptide Concentration ([4]; HEK293): 25 µmol/L
Toxicity when injected systemically in the infection model [5]: did not present toxicity
Gross toxicity, number of mice (TL) (mice; [7]): 2 (TL-1)
Toxicity in preliminary mouse experiments, in words (mice; single dose, peritoneally): lacked toxicity
Hemolytic activity in human red blood cell assays ([1]; concentration range tested 1-400 μmoL^−1): did not present hemolytic activity
Cytotoxic activity, Peptide Concentration ([1]; hRBCs): >400 µmol/L
Cytotoxicity towards murine fibroblasts (L929 cells), in words [2]: not cytotoxic
Cytotoxic activity, Peptide Concentration ([2]; L929): >400 µmol/L
Cytotoxicity towards murine macrophages (RAW 264.7 cells), in words [3]: not cytotoxic
Cytotoxic activity, Peptide Concentration ([3]; RAW 264.7 (Table 2)): >400 µmol/L

FLPII [FLPII motif, FLPII]
Hemolytic activity, Peptide Concentration [6]: >200 µmol/L
Cytotoxic activity, Peptide Concentration ([3]; RAW 264.7, 24 h, 0.5 to 200 μmol L^−1, MTT (Table 6)): >200 µmol/L

gentamicin
Cytotoxic activity, Peptide Concentration ([1]; hRBCs): >400 µmol/L
Cytotoxic activity, Peptide Concentration ([2]; L929): >400 µmol/L
Cytotoxic activity, Peptide Concentration ([3]; RAW 264.7 (Table 2)): >400 µmol/L
